We go through 18 molecules from US12595230B2, “Substituted 6,7-dihydro-5H-benzo[7]annulene compounds and their derivatives, processes for their preparation and therapeutic uses thereof” (Sanofi, priority 2020, dated 2026).

pIC50: −log10 of the molar value.

For the assay, the target named is T1, ERα (Homo sapiens, UniProt P03372).
T1 construct: host or cells: MCF7
T1 sequence (P03372 1-595): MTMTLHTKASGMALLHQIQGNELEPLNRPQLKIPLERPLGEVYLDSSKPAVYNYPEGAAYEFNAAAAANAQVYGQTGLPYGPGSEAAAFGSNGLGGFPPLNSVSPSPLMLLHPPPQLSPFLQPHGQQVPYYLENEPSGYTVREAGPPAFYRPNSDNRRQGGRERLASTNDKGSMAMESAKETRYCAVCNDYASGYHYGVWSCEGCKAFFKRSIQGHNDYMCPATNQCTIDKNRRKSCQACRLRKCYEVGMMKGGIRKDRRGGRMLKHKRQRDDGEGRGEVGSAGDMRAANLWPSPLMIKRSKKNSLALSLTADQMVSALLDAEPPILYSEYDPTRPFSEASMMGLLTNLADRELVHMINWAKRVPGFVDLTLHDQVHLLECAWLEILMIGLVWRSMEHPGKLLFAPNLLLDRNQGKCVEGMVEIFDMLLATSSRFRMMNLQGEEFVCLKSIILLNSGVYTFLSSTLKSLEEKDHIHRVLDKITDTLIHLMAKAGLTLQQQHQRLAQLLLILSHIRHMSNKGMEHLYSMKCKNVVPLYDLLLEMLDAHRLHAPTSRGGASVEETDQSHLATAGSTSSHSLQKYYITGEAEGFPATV
Put plainly: Estrogen receptor degradation activity: breast cancer cell ERα in cell western assay (MCF7 cells). Format: cell-based. Particulars: for % Degradation At 0.3 μM: 4 hours, relative to fulvestrant 0.1 μM positive control; for DC50 / pIC50: 4 hours post compound addition, concentration which degrades 50% of the estrogen receptor; for DC50: read-out: Degradation IC50. As to the method:
Test: Estrogen Receptor Degradation Activity Said test involves measuring the in vitro degradation activity of the compounds of the Table 1a. The measurements of the degradation activities were made using a breast cancer cell ERα in cell western assay as described hereunder. MCF7 cells (ATCC) were seeded in 384 wells microplate (collagen coated) at a concentration of 10000 cells/30 μL per well in red phenol free MEM alpha medium (invitrogen) containing 5% charcoal dextran striped FBS. The following day, 9 points serial 1:5 dilution of each compound was added to the cells in 2.5p L at final concentrations ranging from 0.3-0.0000018 μM (in table 2), or 0.1 μM for fulvestrant (using as positive control). At 4 hours post compound addition the cells were fixed by adding 25 μL of formalin (final concentration 5% formalin containing 0.1% triton) for 10 minutes at room temperature and then washed twice with PBS. Then, 50 μL of LI-COR blocking buffer containing 0.1% Triton was added to plate for 30 minutes at room temperature. LI-COR blocking buffer was removed and cells were incubated overnight at cold room with 50 μL anti-ER rabbit monoclonal antibody (Thermo scientific MA1-39540) diluted at 1:1000 in LI-COR blocking buffer containing 0.1% tween-20. Wells which were treated with blocking buffer but no antibody were used as background control. Wells were washed twice with PBS (0.1% tween-20) and incubated at 37° C. for 60 minutes in LI-COR (0.1% tween-20) containing goat anti-rabbit antibody Alexa 488 (1:1000) and Syto-64 a DNA dye (2 μM final concentration). Cells were then washed 3 times in PBS and scanned in ACUMEN explorer (TTP-Labtech). Integrated intensities in the green fluorescence and red fluorescence were measured to determine the levels of ERα and DNA respectively. The degradation activity with respect to estrogen receptors in this test is given by the concentration which degrades 50% of the estrogen receptor (or IC50) in nM. […] DMSO−fulvestrant)).

Turning to `CC1CCc2cc(C(=O)O)ccc2C(c2ccc(CC3CN(CCCF)C3)cc2)=C1c1ccc(F)cc1C(F)(F)F` (racemic) [Example 312, 8-(4-fluoro-2-(trifluoromethyl)phenyl)-9-(4-((1-(3-fluoropropyl)azetidin-3-yl)methyl)phenyl)-7-methyl-6,7-dihydro-5H-benzo[7]annulene-3-carboxylic acid], the “% Degradation At 0.3 μM” value worked out at 91% and the DC50 is 0.3 nM.
For the molecule `O=C(O)c1ccc2c(c1)CCCC(c1ccccc1CC(F)(F)F)=C2c1ccc(CC2CN(CCCF)C2)cc1` [Example 301, 9-(4-((1-(3-fluoropropyl)azetidin-3-yl)methyl)phenyl)-8-(2-(2,2,2-trifluoroethyl)phenyl)-6,7-dihydro-5H-benzo[7]annulene-3-carboxylic acid], the “% Degradation At 0.3 μM” value is 89% and the DC50 worked out at 0.5 nM.
Taken in the same sequence, the figures for `O=C(O)c1ccc2c(c1)CCCC(c1ccc(Cl)cc1Cl)=C2c1ccc(CC2CN(CCCF)C2)c(F)c1` [Example 239, 8-(2,4-dichlorophenyl)-9-(3-fluoro-4-((1-(3-fluoropropyl)azetidin-3-yl)methyl)phenyl)-6,7-dihydro-5H-benzo[7]annulene-3-carboxylic acid] were 93% and 0.4 nM.
For `COc1c(C(=O)O)ccc2c1CCCC(c1ccc(Cl)cc1Cl)=C2c1ccc(CC2CN(CCCF)C2)cc1` [Example 271, 8-(2,4-dichlorophenyl)-9-(4-((1-(3-fluoropropyl)azetidin-3-yl)methyl)phenyl)-4-methoxy-6,7-dihydro-5H-benzo[7]annulene-3-carboxylic acid], the “% Degradation At 0.3 μM” value came out at 83% and the DC50 came out at 16.2 nM.
Taken in the same sequence, the figures for `CC(O)(c1ccc(C2=C(c3ccc(Cl)cc3Cl)CCCc3cc(C(=O)O)ccc32)cc1)C1CN(CCCF)C1.Cl` (single isomer, unassigned; isomer 2) [Example 236, 8-(2,4-dichlorophenyl)-9-(4-(1-(1-(3-fluoropropyl)azetidin-3-yl)-1-hydroxyethyl)phenyl)-6,7-dihydro-5H-benzo[7]annulene-3-carboxylic Acid, Hydrochloride Isomer 2] were 100% and 0.4 nM.
Regarding `CC1CCc2cc(C(=O)O)ccc2C(c2ccc(CC3CN(CCCF)C3)cc2)=C1c1ccc(F)c(F)c1` (racemic) [Example 326, 8-(3,4-difluorophenyl)-9-(4-((1-(3-fluoropropyl)azetidin-3-yl)methyl)phenyl)-7-methyl-6,7-dihydro-5H-benzo[7]annulene-3-carboxylic acid], the “% Degradation At 0.3 μM” value was 91% and the DC50 turned out to be 0.7 nM.
Taken in the same sequence, the figures for `Cc1cc(OC(F)F)ccc1C1=C(c2ccc(CC3CN(CCCF)C3)cc2)c2ccc(C(=O)O)cc2CCC1` [Example 20, 8-(4-(difluoromethoxy)-2-methylphenyl)-9-(4-((1-(3-fluoropropyl)azetidin-3-yl)methyl)phenyl)-6,7-dihydro-5H-benzo[7]annulene-3-carboxylic acid] were 91% and 0.3 nM.
A word on the pIC50: it is the IC50 on a negative log10 scale, so that one unit is a factor of ten. A high value points to a small IC50. `O=C(O)c1ccc2c(c1)CCCC(CC1CCC1)=C2c1ccc(CC2CN(CCCF)C2)cc1` [Example 294, 8-(cyclobutylmethyl)-9-(4-((1-(3-fluoropropyl)azetidin-3-yl)methyl)phenyl)-6,7-dihydro-5H-benzo[7]annulene-3-carboxylic acid]: the “% Degradation At 0.3 μM” value turned out to be 92% and the pIC50 is 9.70.
As to `O=C(O)c1ccc2c(c1)CCCC(Cc1ccccc1)=C2c1ccc(CC2CN(CCCF)C2)cc1` [Example 311, 8-benzyl-9-(4-((1-(3-fluoropropyl)azetidin-3-yl)methyl)phenyl)-6,7-dihydro-5H-benzo[7]annulene-3-carboxylic acid], the “% Degradation At 0.3 μM” value was 73% and the DC50 was 9 nM.
Taken in the same sequence, the figures for `O=C(O)c1ccc2c(c1)CCCC(c1c(F)cccc1C(F)(F)F)=C2c1ccc(CC2CN(CCCF)C2)cc1` [Example 31, 8-(2-fluoro-6-(trifluoromethyl)phenyl)-9-(4-((1-(3-fluoropropyl)azetidin-3-yl)methyl)phenyl)-6,7-dihydro-5H-benzo[7]annulene-3-carboxylic acid] were 89% and 0.3 nM.
For `O=C(O)c1ccc2c(c1)CCCC(c1ccc(F)cc1C(F)(F)F)=C2c1ccc(CC2CN(CCC(F)(F)F)C2)cc1` [Example 258, 8-(4-fluoro-2-(trifluoromethyl)phenyl)-9-(4-((1-(3,3,3-trifluoropropyl)azetidin-3-yl)methyl)phenyl)-6,7-dihydro-5H-benzo[7]annulene-3-carboxylic acid], the “% Degradation At 0.3 μM” value turned out to be 87% and the DC50 was 0.8 nM.
Regarding `O=C(O)c1ccc2c(c1)CCCC(c1cccc(Cl)c1C(F)(F)F)=C2c1ccc(CC2CN(CCCF)C2)cc1` [Example 226, 8-(3-chloro-2-(trifluoromethyl)phenyl)-9-(4-((1-(3-fluoropropyl)azetidin-3-yl)methyl)phenyl)-6,7-dihydro-5H-benzo[7]annulene-3-carboxylic acid], the “% Degradation At 0.3 μM” value was determined as 90% and the pIC50 was 10.00.
Turning to `CC(C)C1CCc2cc(C(=O)O)ccc2C(c2ccc(CC3CN(CCCF)C3)cc2)=C1c1ccc(Cl)cc1Cl` (single isomer, unassigned) [Example 321, 8-(2,4-dichlorophenyl)-9-(4-((1-(3-fluoropropyl)azetidin-3-yl)methyl)phenyl)-7-isopropyl-6,7-dihydro-5H-benzo[7]annulene-3-carboxylic acid], the “% Degradation At 0.3 μM” value is listed as 88% and the DC50 was 0.5 nM.
With `O=C(O)c1ccc2c(c1)CCCC(c1ccccc1F)=C2c1ccc(CC2CN(CCCF)C2)cc1` [Example 35, 8-(2-fluorophenyl)-9-(4-((1-(3-fluoropropyl)azetidin-3-yl)methyl)phenyl)-6,7-dihydro-5H-benzo[7]annulene-3-carboxylic acid], the “% Degradation At 0.3 μM” value amounted to 91% and the DC50 was 0.4 nM.
Taken in the same sequence, the figures for `O=C(O)c1ccc2c(c1)CCCC(c1cccc(CC(F)(F)F)c1)=C2c1ccc(CC2CN(CCCF)C2)cc1` [Example 298, 9-(4-((1-(3-fluoropropyl)azetidin-3-yl)methyl)phenyl)-8-(3-(2,2,2-trifluoroethyl)phenyl)-6,7-dihydro-5H-benzo[7]annulene-3-carboxylic acid] were 82% and 0.5 nM.
Taken in the same sequence, the figures for `Cc1cc2c(cc1C(=O)O)CCCC(c1ccc(Cl)cc1Cl)=C2c1ccc(CC2CN(CCCF)C2)cc1` [Example 249, 8-(2,4-dichlorophenyl)-9-(4-((1-(3-fluoropropyl)azetidin-3-yl)methyl)phenyl)-2-methyl-6,7-dihydro-5H-benzo[7]annulene-3-carboxylic acid] were 90% and 0.4 nM.
The corresponding values for `O=C(O)c1ccc2c(c1)CCCC(c1ccc(Cl)cc1C(F)(F)F)=C2c1ccc(CC2CN(CCCF)C2)cc1` [Example 27, 8-(4-chloro-2-(trifluoromethyl)phenyl)-9-(4-((1-(3-fluoropropyl)azetidin-3-yl)methyl)phenyl)-6,7-dihydro-5H-benzo[7]annulene-3-carboxylic acid] are 94% and 0.5 nM.
Turning to `O=C(O)c1ccc2c(c1)CCCC(c1ccc(F)cc1C(F)(F)F)=C2c1ccc(CC2(F)CN(CCCF)C2)cc1` [Example 241, 9-(4-((3-fluoro-1-(3-fluoropropyl)azetidin-3-yl)methyl)phenyl)-8-(4-fluoro-2-(trifluoromethyl)phenyl)-6,7-dihydro-5H-benzo[7]annulene-3-carboxylic acid], the “% Degradation At 0.3 μM” value is 92% and the DC50 is 3.7 nM.
